Measurements from patent US20050095663A1, “Process for screening fungitoxic compounds” (priority 2002, published 2005).

Target: T1, Yeast Δ-9 fatty acid desaturase (Saccharomyces cerevisiae, UniProt P21147)
T1 construct: the resulting microsomal pellet suspended in 10 ml of ice-cold 0.1 M potassium phosphate buffer; endogenous in cells; host or cells: Saccharomyces cerevisiae ATCC strain 12341, microsomal fraction
Experiment: Yeast microsomal Δ-9 fatty acid desaturase assay (14C-palmitoyl-CoA to palmitoleic acid)
Type: biochemical
Experimental: The following method was used to prepare the microsomal Δ-9 fatty acid desaturase from yeast. Two 250 ml flasks containing 100 ml each of glucose-yeast extract medium (0.4% yeast extract and 2% glucose) were inoculated with Saccharomyces cerevisiae strain 12341 obtained from the American Type Culture Collection, and grown for 48 h at 30° C. with shaking at 250 rpm. The cells were used to inoculate a 4 liter flask containing 3.6 liters of medium. The cells were grown at 30° C. with gentle shaking at 90 rpm for 24 h. […]
Delta-9 Fatty acid desaturase assays were performed by measuring the desaturation of ^14C-palmitoyl-CoA to palmitoleic acid using 0.5 ml reaction mixtures containing 0.1 M potassium phosphate buffer, pH 7.2, 1 mM NADH and 26 μM ^14C-palmitoyl-CoA (0.028 μCi per assay) in 13×100 mm glass culture tubes. […] The upper cyclohexane layer was removed and 100 μI analyzed by HPLC on a Supelcosil LC-18 column (25×4.6 mm) with methanol-water-phosphoric acid (90:9.9:0.1, by volume) as the mobile phase at a flow rate of 1 ml/min. A Packard A120 RAM detector was used to determine the amounts of radioactivity in the palmitic and palmitoleic acid fractions. The percent inhibition of desaturation was determined by comparing the production of palmitoleic acid in assays containing compound 1 with production in assays containing DMSO alone. […]

T1 sequence (P21147 whole entry, stated change not applied): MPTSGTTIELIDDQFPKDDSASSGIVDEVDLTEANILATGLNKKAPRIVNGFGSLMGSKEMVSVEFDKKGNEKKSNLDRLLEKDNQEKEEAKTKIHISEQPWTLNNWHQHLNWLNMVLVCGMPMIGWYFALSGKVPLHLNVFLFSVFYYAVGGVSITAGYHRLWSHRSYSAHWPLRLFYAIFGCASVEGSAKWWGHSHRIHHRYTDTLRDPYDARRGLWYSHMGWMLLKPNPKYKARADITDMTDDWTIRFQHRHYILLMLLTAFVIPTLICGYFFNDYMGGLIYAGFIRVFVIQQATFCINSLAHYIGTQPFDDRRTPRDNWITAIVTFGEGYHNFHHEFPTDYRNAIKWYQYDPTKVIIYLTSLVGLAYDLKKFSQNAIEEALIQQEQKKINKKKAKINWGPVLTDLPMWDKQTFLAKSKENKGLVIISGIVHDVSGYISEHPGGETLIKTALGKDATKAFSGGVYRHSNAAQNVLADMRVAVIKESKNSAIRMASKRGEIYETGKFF

CCC#CCn1nc(-c2ccc(Cl)cc2)ccc1=O [Compound 1, 6-(4-chlorophenyl)-2-(2′-pentynyl)pyridazinone]
Inhibition of fungal Δ-9 fatty acid desaturase (in words): potent inhibitor | Yeast desaturase EC50 (microsomal preparation, 26 μM 14C-palmitoyl-CoA, 30° C., 5 min): 0.055 ppm
